For data set [1] the following is noted: in vivo; cited from earlier work.
For data set [2] the following is noted: cited from earlier work.
For data set [3] the following is noted: human, in vivo; cited from earlier work.
For data set [4], the system named is COVID-19 (SARS-CoV2). Kind of data set: Example I, intravenous citrulline treatment of hospitalized Covid-19 patients. The class given is in vivo. To be noted: intravenous bolus 20 mg/kg then 9 mg/kg per hour infusion up to 10 days. The method, then: Subjects hospitalized and requiring oxygen for an acute hypoxemic respiratory illness due to COVID-19 (SARS-CoV2) will be treated. In addition, subjects will receive standard supportive care for acute hypoxemic respiratory illness and failure. The assessment of efficacy will include collection of plasma for analysis of citrulline and arginine levels at 2 hours, 12 hours, and the alternating morning of study days. Optionally, samples may also be analyzed for D-dimer and angiopoietin-2 levels.
The assessment of efficacy will include collection of plasma for analysis of citrulline and arginine levels at 2 hours, 12 hours, and the alternating morning of hospitalization days. Additional efficacy measures will include clinical outcomes, including progression of acute lung injury and, lengths of hospital and ICU stay. The assessment of safety will include collection of hemodynamic measurements at least every 4 hours on a hospital unit.
Patients will receive an initial intravenous bolus of 20 mg/kg (to a maximum of 1500 mg) L-citrulline over 10 minutes. The infusion solution will be prepared as a 5% isotonic solution (50 mg/mL) in 5% dextrose water. […]
Participant survival will be assessed at hospital discharge. […] Hospital length of stay will be calculated as the number of days from admission to hospital discharge.

For data set [5] the following is noted: in vivo, iv.
The nature of data set [6]: Phase IB trial of intravenous L-citrulline versus placebo in children undergoing cardiopulmonary bypass (IND #66,261). In kind it is in vivo. The text has this: FIG. 1. Duration of mechanical ventilation therapy following cardiopulmonary bypass in citrulline treated and control patients.
FIG. 2. Duration of inotrope therapy following cardiopulmonary bypass in citrulline treated and control patients.
FIG. 3. Maximum of mechanical ventilation or inotrope therapy (surrogate for duration of ICU stay) following cardiopulmonary bypass in citrulline treated and control patients.
A recent study^39 carried out under IND #66,261 examined whether maintenance of plasma citrulline levels at steady state levels at or above 100 micromolar would prevent the occurrence of pulmonary complications of cardiopulmonary bypass in children undergoing congenital heart repair surgery. For pulmonary function, the endpoint was the post-operative duration of mechanical ventilation (see FIG. 1). Alternative endpoints included the duration of post-operative inotrope therapy (see FIG. 2) and the length of time in the intensive care unit (see FIG. 3).

Where [7] appears, read: plasma citrulline 12 h postoperatively <37 μmol/L.

Here are results for one compound from patent US12064409B2, “Action of L-citrulline to prevent or treat endothelial dysfunction” (Asklepion Pharmaceuticals, LLC, priority 2021, dated 2024).

Each structure is given as a SMILES string. Read-outs that look alike come from different tables or passages of the source.

As to `NC(=O)NCCC[C@H](N)C(=O)O` [citrulline, L-citrulline], in data set [1], the “half-life of citrulline in plasma” value was “about 1 hour”. In data set [2] (setting [7]), the “Pulmonary hypertension absent (number of patients)” value is 18 and the “Pulmonary hypertension present (number of patients)” value was 9. Also, the “Pulmonary hypertension present (number of patients)” value in data set [2] (plasma citrulline 12 h postoperatively >37 μmol/L, P value .036) is “*0”. Further, the “Pulmonary hypertension absent (number of patients)” value in data set [2] (plasma citrulline 12 h postoperatively >37 μmol/L) is 12. Further, in data set [3], the Adverse effects result is listed as “no observed adverse effects”. Also, in data set [4], the “Length of time to an intubation event from the start of study infusion” value is recorded as “extend the length of time to an intubation event” and the “Total length of all mechanical ventilation, including non-invasive modalities” value is “reduce the total length of all mechanical ventilation”. In data set [5], the Drug-associated adverse events entry is reported as “no drug-associated adverse events”. Besides, the “Duration of mechanical ventilation therapy following cardiopulmonary bypass” value in data set [6] (citrulline treated vs control patients, Wilcoxon rank-sum p=0.0089, plasma citrulline at or above 100 micromolar) was “treated differs from control”. The “Duration of inotrope therapy following cardiopulmonary bypass” value in data set [6] (citrulline treated vs control patients, Wilcoxon rank-sum p=0.0351) is “treated differs from control”. The “Maximum of mechanical ventilation or inotrope therapy (surrogate for duration of ICU stay) following cardiopulmonary bypass” value in data set [6] (citrulline treated vs control patients, Wilcoxon rank-sum p=0.0479) is “treated differs from control”. The “Complications of cardiopulmonary bypass” value in data set [6] (plasma citrulline maintained at or above 100 micromolar, by time on mechanical ventilation and duration of inotrope therapy) is on record as “prevented the complications of bypass”.
